Measured values published in US10065963B2 (Incyte Corporation, priority 2015, dated 2018).
Counter-ions that a name gives are not always drawn.

What was measured:
[1] = system: Phosphorylated Ribosomal Protein S6 (RPS6) in THP-1 cells; assay: THP-1 RPS6 ELISA assay; type: cell-based, human; conditions: Homo sapiens, THP-1, THP-1 cells, 10 nM MCP-1; read-out: PI3Kγ_THP1_RPS6_ELISA IC50
[2] = target: PI3Kγ (p110γ) Recombinant Human Protein (Homo sapiens (Human), UniProt P48736); assay: PI3K-γ scintillation proximity assay; type: biochemical; conditions: 2 μM ATP, 20 μM PIP2
[3] = target: PI3Kδ (p110δ/p85α) Recombinant Human Protein (Homo sapiens (Human), UniProt O00329); assay: PI3Kδ scintillation proximity assay; type: biochemical; conditions: 2 μM ATP, 20 μM PIP2
Sequence of PI3Kδ (p110δ/p85α) Recombinant Human Protein (O00329 whole entry): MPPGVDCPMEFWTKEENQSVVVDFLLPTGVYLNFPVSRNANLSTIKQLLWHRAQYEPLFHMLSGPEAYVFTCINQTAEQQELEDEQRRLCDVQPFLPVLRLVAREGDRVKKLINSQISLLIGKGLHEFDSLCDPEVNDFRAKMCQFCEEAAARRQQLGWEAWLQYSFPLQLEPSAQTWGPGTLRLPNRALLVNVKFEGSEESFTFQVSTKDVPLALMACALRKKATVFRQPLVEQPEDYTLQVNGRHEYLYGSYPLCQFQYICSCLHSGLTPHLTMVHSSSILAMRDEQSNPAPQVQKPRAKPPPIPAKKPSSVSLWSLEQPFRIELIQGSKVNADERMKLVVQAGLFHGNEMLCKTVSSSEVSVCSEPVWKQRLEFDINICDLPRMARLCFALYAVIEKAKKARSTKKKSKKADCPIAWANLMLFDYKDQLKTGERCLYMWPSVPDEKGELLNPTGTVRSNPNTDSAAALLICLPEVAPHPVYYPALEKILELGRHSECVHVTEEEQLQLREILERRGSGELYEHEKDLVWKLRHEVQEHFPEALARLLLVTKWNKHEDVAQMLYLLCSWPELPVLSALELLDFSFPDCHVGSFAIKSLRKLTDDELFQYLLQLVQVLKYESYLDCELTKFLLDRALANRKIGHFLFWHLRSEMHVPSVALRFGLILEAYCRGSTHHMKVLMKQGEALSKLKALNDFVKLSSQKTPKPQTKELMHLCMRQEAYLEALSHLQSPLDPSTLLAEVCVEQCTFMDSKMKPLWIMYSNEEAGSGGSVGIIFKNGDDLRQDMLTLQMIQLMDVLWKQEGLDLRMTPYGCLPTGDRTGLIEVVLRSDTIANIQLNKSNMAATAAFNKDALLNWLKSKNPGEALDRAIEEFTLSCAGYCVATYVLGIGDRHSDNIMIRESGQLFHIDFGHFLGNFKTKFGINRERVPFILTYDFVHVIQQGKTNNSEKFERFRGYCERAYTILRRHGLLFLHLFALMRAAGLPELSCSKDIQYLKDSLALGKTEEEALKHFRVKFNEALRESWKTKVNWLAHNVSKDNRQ
Sequence of PI3Kδ (p110δ/p85α) Recombinant Human Protein (P27986 whole entry partner): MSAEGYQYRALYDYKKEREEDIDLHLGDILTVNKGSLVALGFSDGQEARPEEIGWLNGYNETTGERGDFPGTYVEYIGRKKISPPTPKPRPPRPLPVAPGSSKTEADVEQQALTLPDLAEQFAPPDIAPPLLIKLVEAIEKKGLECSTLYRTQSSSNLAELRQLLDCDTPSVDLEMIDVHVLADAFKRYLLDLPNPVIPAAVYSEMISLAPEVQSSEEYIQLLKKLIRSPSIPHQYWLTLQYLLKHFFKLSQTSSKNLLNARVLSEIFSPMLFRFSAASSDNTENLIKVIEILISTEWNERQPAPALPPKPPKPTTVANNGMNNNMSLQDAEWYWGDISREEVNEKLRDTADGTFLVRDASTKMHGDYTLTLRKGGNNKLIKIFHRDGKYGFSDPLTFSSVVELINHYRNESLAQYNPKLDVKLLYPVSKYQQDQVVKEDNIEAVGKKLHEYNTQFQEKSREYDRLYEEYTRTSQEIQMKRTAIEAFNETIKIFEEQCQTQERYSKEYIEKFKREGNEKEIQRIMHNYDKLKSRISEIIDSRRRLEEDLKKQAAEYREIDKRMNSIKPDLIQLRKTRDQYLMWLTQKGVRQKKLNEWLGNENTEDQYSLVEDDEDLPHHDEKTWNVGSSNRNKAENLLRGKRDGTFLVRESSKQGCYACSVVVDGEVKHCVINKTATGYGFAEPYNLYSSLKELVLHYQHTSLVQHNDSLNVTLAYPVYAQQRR

Sequence of PI3Kγ (p110γ) Recombinant Human Protein (P48736 whole entry): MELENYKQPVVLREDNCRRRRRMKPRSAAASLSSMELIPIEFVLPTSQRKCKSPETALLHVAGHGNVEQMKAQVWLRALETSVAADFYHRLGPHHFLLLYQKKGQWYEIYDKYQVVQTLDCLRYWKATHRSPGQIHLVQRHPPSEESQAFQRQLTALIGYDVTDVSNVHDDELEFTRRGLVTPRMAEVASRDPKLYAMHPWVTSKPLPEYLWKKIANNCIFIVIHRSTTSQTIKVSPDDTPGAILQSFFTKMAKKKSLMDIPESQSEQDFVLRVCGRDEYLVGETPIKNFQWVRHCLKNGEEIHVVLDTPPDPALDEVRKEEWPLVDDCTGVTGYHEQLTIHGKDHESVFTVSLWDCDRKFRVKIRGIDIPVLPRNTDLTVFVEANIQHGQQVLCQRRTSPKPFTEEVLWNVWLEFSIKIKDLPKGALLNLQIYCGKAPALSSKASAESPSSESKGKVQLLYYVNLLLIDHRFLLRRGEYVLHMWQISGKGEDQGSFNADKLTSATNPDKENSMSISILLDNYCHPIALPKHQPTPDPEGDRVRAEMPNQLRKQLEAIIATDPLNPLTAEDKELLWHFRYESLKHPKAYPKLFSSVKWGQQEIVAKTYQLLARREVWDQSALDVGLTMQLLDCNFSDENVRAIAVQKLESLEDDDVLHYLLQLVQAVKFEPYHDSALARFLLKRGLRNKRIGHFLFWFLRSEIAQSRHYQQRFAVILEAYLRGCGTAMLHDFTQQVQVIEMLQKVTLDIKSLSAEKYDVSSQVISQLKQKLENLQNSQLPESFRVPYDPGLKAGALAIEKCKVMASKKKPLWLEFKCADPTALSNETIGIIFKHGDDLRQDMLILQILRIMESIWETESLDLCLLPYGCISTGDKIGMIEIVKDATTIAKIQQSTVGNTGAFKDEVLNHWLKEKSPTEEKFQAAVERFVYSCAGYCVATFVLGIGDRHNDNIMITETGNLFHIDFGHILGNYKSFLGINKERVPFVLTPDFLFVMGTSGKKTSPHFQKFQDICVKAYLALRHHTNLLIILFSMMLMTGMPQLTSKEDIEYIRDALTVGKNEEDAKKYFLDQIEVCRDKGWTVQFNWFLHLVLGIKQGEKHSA

Structure (SMILES) | IC50 [1] [nM] | IC50 [2] [nM] | IC50 [3] [nM]
CCOc1c(C(C)NC(=O)c2c(N)nn3cccnc23)cc(Cl)c2cnn(C)c12 (centres unmarked) | < 500 |  | 
CC(NC(=O)c1c(N)nn2cccnc12)c1cc(Cl)c2cncn2c1N1CCC(C#N)C1 (racemic) [Example 32, 2-Amino-N-(1-(8-chloro-5-(3-cyanopyrrolidin-1-yl)imidazo[1,5-a]pyridin-6-yl)ethyl)pyrazolo[1,5-a]pyrimidine-3-carboxamide trifluoroacetate salt] | < 500 | < 100 | < 100
CC(NC(=O)c1c(N)nn2cccnc12)c1cc(Cl)c2cncn2c1N1C[C@H](O)[C@@H](F)C1 (mixture of isomers) [Example 35, 2-Amino-N-(1-(8-chloro-5-((3S,4S)-3-fluoro-4-hydroxypyrrolidin-1-yl)imidazo[1,5-a]pyridin-6-yl)ethyl)pyrazolo[1,5-a]pyrimidine-3-carboxamide trifluoroacetate salt] | < 500 | < 100 | < 100
CC(NC(=O)c1c(N)nn2cccnc12)c1cc(Cl)c2cn[nH]c2c1N1CCC(O)C1 (racemic) [Example 90A, 2-Amino-N-{1-[4-chloro-7-(3-hydroxypyrrolidin-1-yl)-2H-indazol-6-yl]ethyl}pyrazolo[1,5-a]pyrimidine-3-carboxamide bis(trifluoroacetate)] | < 500 | < 100 | < 500
Cc1ncc2c(Cl)cc(C(C)NC(=O)c3c(N)nn4cccnc34)c(-c3cn[nH]c3)n12 (racemic) [Example 118, 2-Amino-N-{1-[8-chloro-3-methyl-5-(1H-pyrazol-4-yl)imidazo[1,5-a]pyridin-6-yl]ethyl}pyrazolo[1,5-a]pyrimidine-3-carboxamide trifluoroacetate salt] | < 500 | < 100 | < 100
Cc1ncc2c(Cl)cc(C(C)NC(=O)c3c(N)nn4cccnc34)c(-c3cnn(C)c3)n12 (racemic) [Example 119, 2-Amino-N-{1-[8-chloro-3-methyl-5-(1-methyl-1H-pyrazol-4-yl)imidazo[1,5-a]pyridin-6-yl]ethyl}pyrazolo[1,5-a]pyrimidine-3-carboxamide trifluoroacetate salt] | < 500 | < 100 | < 500
CC(NC(=O)c1c(N)nn2cccnc12)c1cc(Cl)c2cncn2c1-c1cccnc1 (racemic) [Example 127, 2-Amino-N-[1-(8-chloro-5-pyridin-3-ylimidazo[1,5-a]pyridin-6-yl)ethyl]pyrazolo[1,5-a]pyrimidine-3-carboxamide trifluoroacetate salt] | < 500 | < 100 | < 100
CC(NC(=O)c1c(N)nn2cccnc12)c1cc(Cl)c2cncn2c1-c1cc[nH]n1 (racemic) [Example 130, 2-Amino-N-{1-[8-chloro-5-(1H-pyrazol-3-yl)imidazo[1,5-a]pyridin-6-yl]ethyl}pyrazolo[1,5-a]pyrimidine-3-carboxamide trifluoroacetate salt] | < 500 | < 100 | < 500
CC(NC(=O)c1c(N)nn2cccnc12)c1cc(Cl)c2cncn2c1-c1cncc(S(C)(=O)=O)c1 (racemic) [Example 131, 2-Amino-N-(1-{8-chloro-5-[5-(methylsulfonyl)pyridin-3-yl]imidazo[1,5-a]pyridin-6-yl}ethyl)pyrazolo[1,5-a]pyrimidine-3-carboxamide trifluoroacetate salt] | < 500 | < 100 | < 100
CC(NC(=O)c1c(N)nn2cccnc12)c1cc(Cl)c2cncn2c1-c1ccccn1 (racemic) [Example 133, 2-Amino-N-[1-(8-chloro-5-pyridin-2-ylimidazo[1,5-a]pyridin-6-yl)ethyl]pyrazolo[1,5-a]pyrimidine-3-carboxamide trifluoroacetate salt] | < 500 | < 100 | < 500
CNS(=O)(=O)c1ccc(-c2c(C(C)NC(=O)c3c(N)nn4cccnc34)cc(Cl)c3cncn23)cc1 (racemic) [Example 135, 2-Amino-N-[1-(8-chloro-5-{4-[(methylamino)sulfonyl]phenyl}imidazo[1,5-a]pyridin-6-yl)ethyl]pyrazolo[1,5-a]pyrimidine-3-carboxamide trifluoroacetate salt] | > 1000 | < 100 | < 500
CC(NC(=O)c1c(N)nn2cccnc12)c1cc(Cl)c2cn[nH]c2c1-c1ccccc1 (centres unmarked) [Example 14] | < 1000 |  | 
CC(NC(=O)c1c(N)nn2cccnc12)c1cc(Cl)c2cn[nH]c2c1N1CCC(C(=O)N(C)C)CC1 (centres unmarked) [Example 108, 2-Amino-N-[1-(4-chloro-7-{4-[(dimethylamino)carbonyl]piperidin-1-yl}-2H-indazol-6-yl)ethyl]pyrazolo[1,5-a]pyrimidine-3-carboxamide trifluoroacetate] |  | < 100 | < 500
C[C@H](NC(=O)c1c(N)nn2cccnc12)c1cc(Cl)c2c(Cl)ncn2c1N1CCNS(=O)(=O)CC1 [Example 160, 2-Amino-N-{(1S)-1-[1,8-dichloro-5-(1,1-dioxido-1,2,5-thiadiazepan-5-yl)imidazo[1,5-a]pyridin-6-yl]ethyl}pyrazolo[1,5-a]pyrimidine-3-carboxamide trifluoroacetate salt] |  | < 100 | < 100
C[C@H](NC(=O)c1c(N)nn2cccnc12)c1cc(Cl)c2c(Cl)ncn2c1N1CCNC(=O)CC1 [Example 161, 2-Amino-N-{(1S)-1-[1,8-dichloro-5-(5-oxo-1,4-diazepan-1-yl)imidazo[1,5-a]pyridin-6-yl]ethyl} pyrazolo[1,5-a] pyrimidine-3-carboxamide trifluoroacetate salt] |  | < 100 | < 100
CCCC(NC(=O)c1c(N)nn2cccnc12)c1cc(Cl)c2cncn2c1N1CCS(=O)(=O)CC1 (centres unmarked) [Example 178, trifluoroacetate salt] | < 500 |  | 

Results, then the molecule that gave them:

IC50 [1] [nM] | IC50 [2] [nM] | IC50 [3] [nM] | Structure (SMILES)
< 500 | < 100 | < 100 | Cc1ncc2c(Cl)cc(C(C)NC(=O)c3c(N)nn4cccnc34)c(-c3cccnc3)n12 (racemic) [Example 120, 2-Amino-N-[1-(8-chloro-3-methyl-5-pyridin-3-ylimidazo[1,5-a]pyridin-6-yl)ethyl]pyrazolo[1,5-a]pyrimidine-3-carboxamide trifluoroacetate salt]
< 500 | < 100 | < 500 | Cc1ncc2c(Cl)cc(C(C)NC(=O)c3c(N)nn4cccnc34)c(-c3ccccc3)n12 (racemic) [Example 121, 2-Amino-N-[1-(8-chloro-3-methyl-5-phenylimidazo[1,5-a]pyridin-6-yl)ethyl]pyrazolo[1,5-a]pyrimidine-3-carboxamide trifluoroacetate salt]
< 500 | < 100 | < 100 | Cc1nc(Cl)c2c(Cl)cc(C(C)NC(=O)c3c(N)nn4cccnc34)c(-c3cn[nH]c3)n12 (racemic) [Example 122, 2-Amino-N-{1-[1,8-dichloro-3-methyl-5-(1H-pyrazol-4-yl)imidazo[1,5-a]pyridin-6-yl]ethyl}pyrazolo[1,5-a]pyrimidine-3-carboxamide trifluoroacetate salt]
< 500 | < 100 | < 100 | Cc1nc(F)c2c(Cl)cc(C(C)NC(=O)c3c(N)nn4cccnc34)c(-c3cn[nH]c3)n12 (racemic) [Example 123, 2-Amino-N-{1-[8-chloro-1-fluoro-3-methyl-5-(1H-pyrazol-4-yl)imidazo[1,5-a]pyridin-6-yl]ethyl}pyrazolo[1,5-a]pyrimidine-3-carboxamide trifluoroacetate salt]
> 1000 | < 500 | ≥ 2000 | Cc1nc(C(F)(F)F)c2c(Cl)cc(C(C)NC(=O)c3c(N)nn4cccnc34)c(-c3ccccc3)n12 (racemic) [Example 124, 2-Amino-N-{1-[8-chloro-3-methyl-5-phenyl-1-(trifluoromethyl)imidazo[1,5-a]pyridin-6-yl]ethyl}pyrazolo[1,5-a]pyrimidine-3-carboxamide trifluoroacetate salt]
< 500 | < 100 | < 500 | Cc1nc(C#N)c2c(Cl)cc(C(C)NC(=O)c3c(N)nn4cccnc34)c(-c3ccccc3)n12 (racemic) [Example 125, 2-Amino-N-[1-(8-chloro-1-cyano-3-methyl-5-phenylimidazo[1,5-a]pyridin-6-yl)ethyl]pyrazolo[1,5-a]pyrimidine-3-carboxamide trifluoroacetate salt]
< 500 | < 100 | < 2000 | C#Cc1nc(C)n2c(-c3ccccc3)c(C(C)NC(=O)c3c(N)nn4cccnc34)cc(Cl)c12 (racemic) [Example 126, 2-Amino-N-[1-(8-chloro-1-ethynyl-3-methyl-5-phenylimidazo[1,5-a]pyridin-6-yl)ethyl]pyrazolo[1,5-a]pyrimidine-3-carboxamide]
> 1000 | < 100 | < 2000 | CC(NC(=O)c1c(N)nn2cccnc12)c1cc(Cl)c2c(C#N)ncn2c1-c1cccnc1 (racemic) [Example 128, 2-Amino-N-[1-(8-chloro-1-cyano-5-pyridin-3-ylimidazo[1,5-a]pyridin-6-yl)ethyl]pyrazolo[1,5-a]pyrimidine-3-carboxamide trifluoroacetate salt]
< 1000 | < 100 | < 2000 | Cc1ncn2c(-c3cccnc3)c(C(C)NC(=O)c3c(N)nn4cccnc34)cc(Cl)c12 (racemic) [Example 129, 2-Amino-N-[1-(8-chloro-1-methyl-5-pyridin-3-ylimidazo[1,5-a]pyridin-6-yl)ethyl]pyrazolo[1,5-a]pyrimidine-3-carboxamide trifluoroacetate salt]
< 1000 |  |  | CC(NC(=O)c1c(N)nn2cccnc12)c1cc(Cl)c2c(Br)n[nH]c2c1-c1ccccc1 (centres unmarked) [Example 23]
< 500 |  |  | Cc1ncc2c(Cl)cc(C(C)NC(=O)c3c(N)nn4cccnc34)c(-c3cccc(F)c3)n12 (centres unmarked) [Example 26]
